Assay results reported in the NIST ThermoML archive (doi:10.1021/je3013342).

Experiments:
[1] = 101 kPa, Liquid, Vibrating tube method
[2] = xn = mol fraction of the nth substance listed; details: 101 kPa, Liquid, Vibrating tube method

ClCCCCCl [1,4-dichlorobutane]
[1]
Details | mass density [kg/m3]
298.15 K | 1133.94
308.15 K | 1123
318.15 K | 1112

C[N+](=O)[O-] [nitromethane] + ClC(Cl)Cl
mass density [kg/m3], [2]
Details | x2 = 0 | x2 = 0.1197 | x2 = 0.1772 | x2 = 0.3007 | x2 = 0.4009 | x2 = 0.5 | x2 = 0.5978 | x2 = 0.7194 | x2 = 0.8607 | x2 = 0.9562
298.15 K | 1130.86 | 1189.05 | 1214.82 | 1265.96 | 1303.55 | 1337.74 | 1368.78 | 1404.19 | 1441.14 | 1463.58
308.15 K | 1117.24 | 1174.6 | 1200 | 1250.36 | 1287.37 | 1321 | 1351.55 | 1386.34 | 1422.65 | 1444.71
318.15 K | 1103.5 | 1160.01 | 1185.02 | 1234.59 | 1271 | 1304.11 | 1334.09 | 1368.25 | 1403.89 | 1425.56

C[N+](=O)[O-] [nitromethane] + ClCCCCl
[2], x2 = 0
Details | mass density [kg/m3]
298.15 K | 1130.9
308.15 K | 1117.28
318.15 K | 1103.53

ClCCCCCl [1,4-dichlorobutane] + C[N+](=O)[O-]
mass density [kg/m3], [2]
Details | x1 = 0.0825 | x1 = 0.1759 | x1 = 0.2825 | x1 = 0.3815 | x1 = 0.4815 | x1 = 0.5911 | x1 = 0.6898 | x1 = 0.8208 | x1 = 0.9262 | x1 = 1
298.15 K | 1128.17 | 1126.77 | 1126.33 | 1126.62 | 1127.33 | 1128.46 | 1129.64 | 1131.38 | 1132.86 | 1133.94
308.15 K | 1114.98 | 1113.92 | 1113.86 | 1114.44 | 1115.42 | 1116.8 | 1118.18 | 1120.16 | 1121.81 | 1123
318.15 K | 1101.65 | 1100.97 | 1101.28 | 1102.17 | 1103.42 | 1105.05 | 1106.65 | 1108.88 | 1110.7 | 1112
